From patent US20230321083A1, “Inhibitors of GPR174 and Uses Thereof” (Omeros Corporation, priority 2016, published 2023) come the findings set out here.

Structures are written as SMILES.

One series concerns C57BL/6+DBA1 splenocytes. The series is described as follows: Cytokines in C57BL/6 + DBA1 splenocyte co-culture. It is filed as cell-based, mouse. To be noted: 30 μM; day 6 after mixing. The protocol:
In order to stimulate T cells in mice, splenocytes obtained from two different mouse strains, C57BL/6 and DBA1, were mixed in culture.
The effect of compound #10 on production of cytokines (IFN-γ, IL-5, TNF-α, IL-2, IL-6, IL-4, IL-10, IL-9, IL17A, IL17F, IL-21, IL-22 and IL-13) in mouse splenocyte co-cultures was determined as follows. Splenocytes obtained from two different mouse strains, C57BL/6 and DBA1, were mixed in culture in the presence or absence of 30 μM compound #10. Cytokine production of IFN-γ, IL-5, TNF-α, IL-2, IL-6, IL-4, IL-10, IL-9, IL-17A, IL-17F, IL-21, IL-22 and IL-13 was measured in the co-culture supernatant at day 4 and day 6 after mixing. Cytokine levels were determined by LEGENDplex™ bead-based immunoassays from BioLegend (San Diego, CA) according to the manufacturer's instructions.

A further series has as its system human PBMCs. Nature of the series: Cytokines in culture supernatants of stimulated human PBMCs (ELISA / LEGENDplex). The class given is cell-based. The protocol:
The effect of compound #10 on IL-2 and IFN-γ production in human PBMCs was determined as follows. PBMCs from a single donor were adjusted to a density of 2×10^6 cells/mL, stimulated with 100 ng/mL of anti-CD3 and 100 ng/mL of anti-CD28 antibodies and treated with 1 μM, 3 μM, or 10 μM of compound #10. Supernatant from these cells was taken on day 2 post-stimulation and the levels of IL-2 and IFN-γ were determined by ELISA assay using Ready-SET-Go ELISA kits from Affimetrix Ebioscience according to the manufacturer's instructions.
The effect of compound #10 on IL-2 production in human PBMCs was determined as follows. […] Supernatant from these cells was taken on day 3 post-stimulation and the levels of IL-2 were determined by ELISA assay using Ready-SET-Go™ ELISA kits from Affimetrix Ebioscience and LEGENDplex™ bead-based immunoassays from BioLegend according to the manufacturer's instructions.
The effect of compound #10 on IL-2 production in human PBMC from each donor was determined as follows. PBMC from each donor were adjusted to a density of 2×10^6 cells/mL, stimulated with 100 ng/mL of anti-CD3 and 100 ng/mL of anti-CD28 antibodies and treated with 30 μM compound #10. Supernatant from these cells was taken on day 2 post-stimulation and the levels of IL-2 were determined by ELISA assay using LEGENDplex™ bead-based immunoassays from BioLegend (San Diego, CA) according to the manufacturer's instructions.
The effect of compound #10 on the production of a panel of additional cytokines (interleukin 5 (IL-5), interleukin 13 (IL-13), interleukin 6 (IL-6), interleukin 9 (IL-9), interleukin 10 (IL-10), interferon gamma (IFN-γ), tumor necrosis factor alpha (TNF-α), interleukine 17A (IL-17A), interleukin 17F (IL-17F), interleukin 4 (IL-4) and interleukin 22 (IL-22)) in pooled human PBMC obtained from eight donors was determined as follows. PBMC from eight donors were pooled, then adjusted to a density of 2×10^6 cells/mL, stimulated with 100 ng/mL of anti-CD3 and 100 ng/mL of anti-CD28 antibodies and treated with 30 μM compound #10. Supernatant from these cells was taken on day 2 post-stimulation and the levels of IL-5, IL-13, IL-6, IL-9, IL-10, IFN-γ, TNF-α, IL-17A, IL-17F, IL-4 and IL-22 were determined by ELISA using LEGENDplex™ bead-based immunoassays from BioLegend (San Diego, CA) according to the manufacturer's instructions.
In general terms: In an ELISA, binding on a coated surface is turned into a signal by an enzyme label.

The target of a further series is GPR174 (Homo sapiens, UniProt Q9BXC1). Nature of the series: CRE-Luc reporter Gs signaling assay, cells transfected with GPR174. It is filed as cell-based. The arrangement: host or cells: HEK293 or CHO cell lines (ATCC). To be noted: CRE-Luc reporter. The protocol: Compounds were tested in the reporter system with increasing concentrations of GPR174-interacting compounds. GPR174 construct pCMV6-XL4-GPR174 or ADBR2, reporter of interest, pCRE-Luc or GL4.29 (3000 ng), and TK-renilla as an internal control (10 ng) with lipofectamine 2000 (60 ug) (Invitrogen, CA) according to the manufacturer's directions.
Chain of GPR174 (Q9BXC1 whole entry): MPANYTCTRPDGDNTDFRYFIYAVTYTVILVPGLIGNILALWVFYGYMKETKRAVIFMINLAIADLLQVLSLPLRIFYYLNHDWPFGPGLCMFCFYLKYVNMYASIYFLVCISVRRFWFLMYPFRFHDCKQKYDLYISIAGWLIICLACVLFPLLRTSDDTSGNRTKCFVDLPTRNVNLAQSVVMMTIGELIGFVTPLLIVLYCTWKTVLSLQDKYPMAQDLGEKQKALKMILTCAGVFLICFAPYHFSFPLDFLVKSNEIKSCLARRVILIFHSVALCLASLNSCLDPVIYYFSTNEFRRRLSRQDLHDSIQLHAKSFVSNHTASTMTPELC
The DNA/lipofectamine 2000 mix (3000 μL) was incubated at room temperature for 30 minutes and then added into a 10 cm culture dish (Corning, NY) containing 70-90% confluent cultured cells, typically HEK293 or CHO cell lines (ATCC, VA), in 15 mL of media. The cells were further incubated for 4-6 hours at 37° C. and then media were removed and cells were detached with 2 mL trypsin (Life Technologies, CA). Media (26 mL) were added to the detached cells and 120 μL of transfected cells were transferred to each well on a 96-well plate. Increasing concentration of each compound in DMSO (1.2 μl) was added to the cells after plating into the 96-well plate. The cells were further incubated at 37° C. for various times. The media were removed and the cells lysed. Luciferase and renilla activities were measured with the Dual-luciferase assay system (Promega, WI) according to the manufacturer's directions. Typically, lysis buffer (25 μL) was added to the cells and incubated at room temperature for 20-30 minutes to allow for the cells to lyse. The lysate (10 μL) was measured for luciferase and renilla activity with LARII and Stop&Glo reagent (50 μL each) with a SpectraMax L (Molecular Devices, CA). Data were analyzed with either Excel (Microsoft, WA) or Prism 4.03 (GraphPad, CA).
ADBR2 is a GPCR, like GPR174, that activates the Gs signaling pathway.

In series [1] the test system is PD-L1, TIGIT, AREG expression in human T cells. Nature of the series: PD-L1, TIGIT and AREG expression on human T cells in PBMC cultures. The class given is cell-based. To be noted: 1.25 or 5 μM; one day post-stimulation; dose-dependent. The protocol:
PBMC cells from a single donor mixed with additional irradiated antigen-presenting cells (APC) and anti-CD3 antibodies (UCHT1) were incubated in the presence of various concentrations of GPR174 inhibitory compound #10 (1.25 to 5 μM) or equivalent concentrations of vehicle (DMSO). The cells were analyzed by flow cytometry for expression of CD4, CD8, PD-L1, TIGIT and AREG.

Setting [2] is: day 2, 30 μM, PBMC from eight donors, p<0.001.
Setting [3] is: day 2, 30 μM, PBMC from eight donors, p<0.05.

Turning to `CC1CCN(c2cc(N3CCN(S(=O)(=O)c4ccccc4)CC3)c([N+](=O)[O-])cc2F)CC1` [Compound 10], the “fold induction of a panel of cytokines in splenocyte co-culture” value with C57BL/6+DBA1 splenocytes is recorded as “strong alteration in quantities of cytokines”. Also, in the series on human PBMCs (setting [2]), the “IL-6 in culture supernatants (fold over vehicle)” value is given as “statistically significant fold increase” and the “IL-17A in culture supernatants (fold over vehicle)” value is “statistically significant fold decrease”. In addition, in the series with human PBMCs (setting [3]), the “IFN-γ in culture supernatants (fold over vehicle)” value is reported as “statistically significant fold increase”, the “IL-10 in culture supernatants (fold over vehicle)” value is given as “statistically significant fold increase” and the “TNF-α in culture supernatants (fold over vehicle)” value is on record as “statistically significant fold increase”. Besides, the “IL-2 (pg/mL) in culture supernatants” value in the series with human PBMCs (day 3 post-stimulation, 3, 10, 30, 60 μM, single donor) was “increased IL-2 levels in culture supernatants in a dose-dependent manner”. In addition, the “effect on Gs pathway in the presence of GPR174” value on GPR174 is listed as “inhibited the Gs pathway”. Moreover, in series [1], the “fraction of human CD4+ T cells with AREG positive staining” value is given as “reduced”, the “fraction of human CD4+ T cells with PD-L1 positive staining” value is on record as “reduced” and the “fraction of human CD8+ T cells with TGIT positive staining” value is reported as “reduced”.
